Consider twelve compounds from BindingDB's records for doi:10.1074/jbc.272.51.31949 (Schering-Plough Research Institute, 1997).

For one test, the target named is T1, Galanin receptor type 3 (Rattus norvegicus, UniProt O88626).
T1 sequence (O88626 whole entry): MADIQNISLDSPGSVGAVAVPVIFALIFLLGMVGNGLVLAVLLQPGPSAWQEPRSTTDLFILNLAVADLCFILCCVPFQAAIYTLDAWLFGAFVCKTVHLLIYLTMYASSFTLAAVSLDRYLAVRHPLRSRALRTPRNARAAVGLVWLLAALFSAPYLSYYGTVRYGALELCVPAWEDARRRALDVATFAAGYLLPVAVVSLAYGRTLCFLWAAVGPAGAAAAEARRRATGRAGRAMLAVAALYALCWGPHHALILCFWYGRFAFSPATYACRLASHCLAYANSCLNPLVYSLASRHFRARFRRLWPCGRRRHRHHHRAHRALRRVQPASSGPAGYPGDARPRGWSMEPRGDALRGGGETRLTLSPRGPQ

In the next test the target is T2, Galanin receptor type 2 (Rattus norvegicus, UniProt O08726).
T2 sequence (O08726 whole entry): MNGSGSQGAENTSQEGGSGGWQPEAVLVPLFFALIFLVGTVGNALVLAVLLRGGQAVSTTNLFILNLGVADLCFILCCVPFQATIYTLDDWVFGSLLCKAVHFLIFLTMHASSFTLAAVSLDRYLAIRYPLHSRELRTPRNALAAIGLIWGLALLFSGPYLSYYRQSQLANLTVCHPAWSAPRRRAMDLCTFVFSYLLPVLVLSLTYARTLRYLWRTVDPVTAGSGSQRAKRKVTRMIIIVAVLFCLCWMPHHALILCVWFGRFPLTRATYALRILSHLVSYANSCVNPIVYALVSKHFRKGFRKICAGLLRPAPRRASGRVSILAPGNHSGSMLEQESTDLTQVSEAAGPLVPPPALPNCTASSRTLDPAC

Where a SMILES comes first, the peptide text is derived from it. [ ]: non-standard residue; d: D form. Some results are limits rather than exact numbers.

Usually Ki stands for the dissociation constant of the complex between target and ligand, obtained from inhibition or displacement. Read a low Ki as higher affinity. Compound `CC(C)C[C@H](NC(=O)[C@H](CC(C)C)NC(=O)[C@H](Cc1ccc(O)cc1)NC(=O)CNC(=O)[C@H](C)NC(=O)[C@H](CO)NC(=O)[C@H](CC(N)=O)NC(=O)[C@H](CC(C)C)NC(=O)[C@@H](NC(=O)[C@H](Cc1c[nH]c2ccccc12)NC(=O)CN)[C@@H](C)O)C(=O)NCC(=O)N1CCC[C@H]1C(=O)N1CCC[C@H]1C(=O)N1CCC[C@H]1C(=O)NCC(=O)N[C@@H](Cc1ccccc1)C(=O)N[C@@H](CO)C(=O)N1CCC[C@H]1C(=O)N[C@@H](Cc1ccccc1)C(=O)N[C@@H](CCCN=C(N)N)C(N)=O` had a Ki at Galanin receptor type 3 of 7.5 nM.

With `CCC(C)C(NC(=O)C(C)NC(=O)C(Cc1cnc[nH]1)NC(=O)C1CCCN1C(=O)CNC(=O)C(CC(C)C)NC(=O)C(CC(C)C)NC(=O)C(Cc1ccc(O)cc1)NC(=O)CNC(=O)C(C)NC(=O)C(CO)NC(=O)C(CC(N)=O)NC(=O)C(CC(C)C)NC(=O)C(NC(=O)C(Cc1c[nH]c2ccccc12)NC(=O)CN)C(C)O)C(=O)NC(CC(=O)O)C(=O)NC(CC(N)=O)C(=O)NC(Cc1cnc[nH]1)C(=O)NC(CCCN=C(N)N)C(=O)NC(CO)C(=O)NC(Cc1ccccc1)C(=O)NC(CO)C(=O)NC(CC(=O)O)C(=O)NC(CCCCN)C(=O)NC(Cc1cnc[nH]1)C(=O)NCC(=O)NC(CC(C)C)C(=O)NC(C(=O)NCC(N)=O)C(C)O` (stereo unspecified) [CAS_132699-74-2], the Ki on Galanin receptor type 3 was over 1000 nM.

The compound `CC(C)C[C@H](NC(=O)[C@H](CC(C)C)NC(=O)[C@@H](Cc1c[nH]c2ccccc12)NC(=O)[C@H](Cc1ccccc1)NC(=O)[C@@H](Cc1c[nH]c2ccccc12)NC(=O)[C@H](CCC(N)=O)NC(=O)[C@H](CCC(N)=O)NC(=O)[C@@H]1CCCN1C(=O)[C@H](CCCCN)NC(=O)[C@@H]1CCCN1C(=O)[C@@H](CCCNC(=N)N)NC(=O)[C@@H]1CCCN1C(=O)CNC(=O)[C@H](CC(C)C)NC(=O)[C@H](CC(C)C)NC(=O)[C@H](Cc1ccc(O)cc1)NC(=O)CNC(=O)[C@H](C)NC(=O)[C@H](CO)NC(=O)[C@H](CC(N)=O)NC(=O)[C@H](CC(C)C)NC(=O)[C@@H](NC(=O)[C@H](Cc1c[nH]c2ccccc12)NC(=O)CN)[C@@H](C)O)C(N)=O` [Gal(1-13)-Std I] (H-GWTLNSAGYLLGP[dR]PKPQQ[dW]F[dW]LL-NH2) showed a Ki on Galanin receptor type 3 of 0.75 nM. As to `CC(C)C[C@H](NC(=O)[C@H](CC(C)C)NC(=O)[C@@H](Cc1c[nH]c2ccccc12)NC(=O)[C@@H](Cc1c[nH]c2ccccc12)NC(=O)[C@H](C)NC(=O)[C@H](NC(=O)[C@H](CC(N)=O)NC(=O)[C@H](CC(C)C)NC(=O)[C@@H](NC(=O)[C@H](Cc1c[nH]c2ccccc12)NC(=O)CN)[C@@H](C)O)[C@H](C)O)C(=O)NCC(=O)N1CCC[C@H]1C(=O)N[C@@H](Cc1cnc[nH]1)C(=O)N[C@@H](C)CO` [Gal-(1-15)-ol,[d-Thr6,d-Trp8,9]], at Galanin receptor type 3, the Ki came to 1000 nM.

At Galanin receptor type 3, `CC(C)C[C@H](NC(=O)[C@H](CC(C)C)NC(=O)[C@H](Cc1ccc(O)cc1)NC(=O)[C@@H](Cc1c[nH]c2ccccc12)NC(=O)[C@H](C)NC(=O)[C@H](C)NC(=O)[C@H](CC(N)=O)NC(=O)[C@H](CC(C)C)NC(=O)[C@@H](NC(=O)[C@H](Cc1c[nH]c2ccccc12)NC(=O)CN)[C@@H](C)O)C(=O)NCC(=O)N1CCC[C@H]1C(=O)N[C@@H](Cc1cnc[nH]1)C(=O)N[C@@H](C)CO` [Galanin (1-15)-ol,[Ala6,D-trp8]] registered a Ki of 17.9 nM.

As for `CC[C@H](C)[C@H](NC(=O)[C@H](C)NC(=O)[C@H](Cc1c[nH]cn1)NC(=O)[C@@H]1CCCN1C(=O)CNC(=O)[C@H](CC(C)C)NC(=O)[C@H](CC(C)C)NC(=O)[C@H](Cc1ccc(O)cc1)NC(=O)CNC(=O)[C@H](C)NC(=O)[C@H](CO)NC(=O)[C@H](CC(N)=O)NC(=O)[C@H](CC(C)C)NC(=O)[C@@H](N)[C@@H](C)O)C(=O)N[C@@H](CC(=O)O)C(=O)N[C@@H](CC(N)=O)C(=O)N[C@@H](Cc1c[nH]cn1)C(=O)N[C@@H](CCCNC(=N)N)C(=O)N[C@@H](CO)C(=O)N[C@@H](Cc1ccccc1)C(=O)N[C@@H](CO)C(=O)N[C@@H](CC(=O)O)C(=O)N[C@@H](CCCCN)C(=O)N[C@@H](Cc1c[nH]cn1)C(=O)NCC(=O)N[C@@H](CC(C)C)C(=O)N[C@H](C(N)=O)[C@@H](C)O` [Galanin (3-29), rat], the affinity on Galanin receptor type 3 corresponds to a Ki of 1000 nM. Consider `CC[C@H](C)[C@H](NC(=O)[C@H](C)NC(=O)[C@H](Cc1c[nH]cn1)NC(=O)[C@@H]1CCCN1C(=O)CNC(=O)[C@H](CC(C)C)NC(=O)[C@H](CC(C)C)NC(=O)[C@H](Cc1ccc(O)cc1)NC(=O)CNC(=O)[C@H](C)NC(=O)[C@H](CO)NC(=O)[C@H](CC(N)=O)NC(=O)[C@H](CC(C)C)NC(=O)[C@@H](NC(=O)[C@@H](N)Cc1c[nH]c2ccccc12)[C@@H](C)O)C(=O)N[C@@H](CC(=O)O)C(=O)N[C@@H](CC(N)=O)C(=O)N[C@@H](Cc1c[nH]cn1)C(=O)N[C@@H](CCCNC(=N)N)C(=O)N[C@@H](CO)C(=O)N[C@@H](Cc1ccccc1)C(=O)N[C@@H](CO)C(=O)N[C@@H](CC(=O)O)C(=O)N[C@@H](CCCCN)C(=O)N[C@@H](Cc1c[nH]cn1)C(=O)NCC(=O)N[C@@H](CC(C)C)C(=O)N[C@H](C(N)=O)[C@@H](C)O` [Galanin Porcine 2-29], for which the inhibition constant (Ki) at Galanin receptor type 2 was 1.92 nM; at Galanin receptor type 3, 12.6 nM. Take `CC[C@H](C)[C@H](NC(=O)[C@H](C)NC(=O)[C@H](Cc1cnc[nH]1)NC(=O)[C@@H]1CCCN1C(=O)CNC(=O)[C@H](CC(C)C)NC(=O)[C@H](CC(C)C)NC(=O)[C@H](Cc1ccc(O)cc1)NC(=O)CNC(=O)[C@H](C)NC(=O)[C@H](CO)NC(=O)[C@H](CC(N)=O)NC(=O)[C@H](CC(C)C)NC(=O)[C@@H](NC(=O)[C@H](Cc1c[nH]c2ccccc12)NC(=O)CN)[C@@H](C)O)C(=O)N[C@@H](CC(=O)O)C(=O)N[C@@H](CC(N)=O)C(=O)N[C@@H](Cc1cnc[nH]1)C(N)=O` [Galanin rat]: the Ki on Galanin receptor type 2 is 4.7 nM; at Galanin receptor type 3, 6.25 nM. Take “H-ELEPEDEARPGGFDRLQSQDKAIRTIMEFLAFLHLKEAGAL-NH2 [GMAP (1-41)]”: the Ki at Galanin receptor type 3 was 1000 nM. Consider H-GWTLNSAGYLLGPPPALALA-NH2 [M40], for which the inhibition constant Ki on Galanin receptor type 2 was 2.88 nM; at Galanin receptor type 3, 54 nM. In the case of “H-LLGPHAIDNHRSFSDKHGLT-NH2 [Galanin (10-29), rat]”, the Ki on Galanin receptor type 3 was determined as 1000 nM.

Regarding “H-LPGLPSAASSEDAGQS-NH2 [CAS_125455-59-6]”, the Ki on Galanin receptor type 2 is 1000 nM; at Galanin receptor type 3 it was over 1000 nM.
